We go through twelve compounds from patent US10023591B2, “Heterocyclic derivatives and use thereof” (C&C RESEARCH LABORATORIES, priority 2014, dated 2018).

The subject of test [1] is STAT3. The experiment in a line: STAT3 reporter gene assay (luciferase), LNCaP stable cell line pSTAT3-TA-luc, IL-6 stimulation. The class given is cell-based, human. The conditions noted are these: Homo sapiens. Put shortly: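 LNCaP cells stably carrying pSTAT3-TA-luc were plated 24 h in 3% DCC-FBS medium, then given compound followed by IL-6 (10 ng/mL final) for 24 h at 37 °C. Luciferase was read from lysates, with CellTiter-Glo viability on a duplicate plate. Stimulated 0.1% DMSO wells served as uninhibited control.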

Test [2] has as its system STAT1. Nature of the test: STAT1 reporter gene assay (luciferase), U2OS stable cell line pGL4-STAT1-TA-luc, IFN-γ stimulation. It is filed as cell-based, human. The conditions noted are these: Homo sapiens, IFN-γ 50 ng/mL, 8 hours, read-out: IC50 (μM) pSTAT1. A digest of the protocol:
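U2OS cells stably carrying a STAT1-driven luciferase reporter were treated with serially diluted compounds plus IFN-γ (50 ng/mL final) for 8 h at 37 °C in 10% FBS medium. Luciferase read after lysis; parallel plate assessed for cytotoxicity by CellTiter-Glo.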

For test [3], the system named is NCI-N87 stomach cancer cell line. Nature of the test: Cell growth inhibition assay, NCI-N87 (CellTiter-Glo). The class given is cell-based. As to conditions: Homo sapiens; NCI-N87, 5,000 cells/well, 96 hours. Put shortly:
(§1)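 Cells seeded at 3,000 (DU-145), 5,000 (NCI-N87) or 10,000 (LNCaP, MDA-MB-468) per well, LNCaP in medium with 10 ng/mL IL-6. Serially diluted compound for 96 h at 37 °C (MDA-MB-468 in air, others 5% CO2); viability by CellTiter-Glo luminescence versus 0.1% DMSO wells.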
Background: ATP-based viability assays read luminescence as a measure of living cells.

Test [4] has as its system MDA-MB-468 breast cancer cell line. The experiment in a line: Cell growth inhibition assay, MDA-MB-468 (CellTiter-Glo). The class given is cell-based. As to conditions: Homo sapiens, MDA-MB-468, 96 hours. As for the experimental part:
The inhibitory effects of the compounds of the present invention against the growth of cancer cells were evaluated as shown below. The cancer cell lines including prostate cancer cell lines (LNCaP, DU-145), stomach cancer cell line (NCI-N87), and breast cancer cell lines (MDA-MB-468) were cultured under the protocol provided by each supplier. A medium supplemented with 10 ng/mL of IL-6 was used for LNCaP, a prostate cancer cell line, when treated with a drug. Each type of cells to be used in experiments was sub-cultured in a 96-well plate by counting the exact number of cells using Tali™ Image-based Cytometer (Life Technologies). In a 96-well plate, DU-145 was employed with 3,000 cells/well; NCI-N87 was employed with 5,000 cells/well; and LNCaP and MDA-MB-468 were employed with 10,000 cells/well. The cells were treated with the compounds listed in Examples which were diluted in various concentrations. Upon completion of the compounds treatment, LNCaP, DU-145, NCI-N87 cells were cultured at 37° C. under 5% CO2 for 96 hours, and MDA-MB-468 cells were cultured at 37° C. in air for 96 hours. Subsequently, the cells were observed under microscope and drug precipitation and particular findings were investigated and recorded. And then, the 96-well plate was placed at room temperature for 30 minutes, added with 20 pt/well of CellTiter-Glo solution (Cat No. G7573, Promega) and shaken for 10 minutes, followed by being subjected to the measurement using PHERAstar™ microplate reader (BMG LABTECH) according to the supplier's general luminometer protocol. Wells where only culture liquid added without cell plating were used as a negative control, whereas wells where culture liquid containing 0.1% DMSO instead of the compounds listed in Examples were used as a positive control.

For test [5], the system named is LNCaP prostate cancer cell line. Nature of the test: Cell growth inhibition assay, LNCaP (CellTiter-Glo). It is filed as cell-based. As to conditions: Homo sapiens; LNCaP, 10,000 cells/well, medium with 10 ng/mL IL-6, 96 hours. Put shortly: as §1
Test [6] concerns DU-145 prostate cancer cell line. The experiment in a line: Cell growth inhibition assay, DU-145 (CellTiter-Glo). The class given is cell-based. As to conditions: Homo sapiens; DU-145, 3,000 cells/well, 96 hours. Put shortly: as §1

In general, IC50 refers to the midpoint of a concentration-inhibition curve. With `Cc1sccc1Oc1cc(NC(=O)c2cc3cc(C(C)(C)S(C)(=O)=O)ccc3s2)cc(Cl)n1` [Example 115, N-(2-chloro-6-((2-methylthiophen-3-yl)oxy)pyridin-4-yl)-5-(2-(methylsulfonyl)propan-2-yl)benzo[b]thiophene-2-carboxamide], the IC50 in test [1] is 0.019 µM; in test [2], greater than 50 µM; in test [3] it was 0.14 µM; in test [4], 0.021 µM.
The corresponding values for `Cc1ccc(Oc2cc(NC(=O)c3cc4cc(C(C)(C)S(C)(=O)=O)ccc4s3)cc(Cl)n2)s1` [Example 120, N-(2-chloro-6-((5-methylthiophen-2-yl)oxy)pyridin-4-yl)-5-(2-(methylsulfonyl)propan-2-yl)benzo[b]thiophene-2-carboxamide] are 0.078 µM, 39.6 µM, 0.12 µM and 0.026 µM.
The corresponding values for `CC(C)(c1ccc2sc(C(=O)Nc3cc(Cl)nc(Oc4csc(C(F)(F)F)c4)c3)cc2c1)S(C)(=O)=O` [Example 117, N-(2-chloro-6-((5-(trifluoromethyl)thiophen-3-yl)oxy)pyridin-4-yl)-5-(2-(methylsulfonyl)propan-2-yl)benzo[b]thiophene-2-carboxamide] are 0.028 µM, greater than 50 µM, 0.037 µM and 0.0053 µM.
In the case of `CC(C)(c1ccc2sc(C(=O)Nc3cc(Cl)nc(Oc4cccc(OC(F)(F)F)c4)c3)cc2c1)S(C)(=O)=O` [Example 81, N-(2-chloro-6-(3-(trifluoromethoxy)phenoxy)pyridin-4-yl)-5-(2-(methylsulfonyl)propan-2-yl)benzo[b]thiophene-2-carboxamide], the half-inhibitory concentration (IC50) is 0.005 µM in test [1], greater than 50 µM in test [2], 0.033 µM in test [3] and 0.0038 µM in test [4].
Consider `CC(C)(c1ccc2sc(C(=O)Nc3cc(Cl)nc(Oc4ccc(Cl)cc4)c3)cc2c1)S(C)(=O)=O` [Example 64, N-(2-chloro-6-(4-chlorophenoxy)pyridin-4-yl)-5-(2-(methylsulfonyl)propan-2-yl)benzo[b]thiophene-2-carboxamide], for which the IC50 in test [1] is 0.021 µM; in test [2], greater than 50 µM; in test [5], 0.013 µM; in test [6] it was 0.0057 µM; in test [3] it was 0.034 µM; in test [4], 0.0065 µM.
In the case of `CC(C)(c1ccc2sc(C(=O)Nc3cc(Cl)nc(OCc4ccc(Cl)cc4)c3)cc2c1)S(C)(=O)=O` [Example 86, N-(2-chloro-6-((4-chlorobenzyl)oxy)pyridin-4-yl)-5-(2-(methylsulfonyl)propan-2-yl)benzo[b]thiophene-2-carboxamide], the IC50 was 0.089 µM in test [1], greater than 50 µM in test [2], 0.15 µM in test [3] and 0.024 µM in test [4].
Take `CC(C)(c1ccc2sc(C(=O)Nc3cc(Cl)nc(Oc4ccsc4Cl)c3)cc2c1)S(C)(=O)=O` [Example 121, N-(2-chloro-6-((2-chlorothiophen-3-yl)oxy)pyridin-4-yl)-5-(2-(methylsulfonyl)propan-2-yl)benzo[b]thiophene-2-carboxamide]: the 50% inhibitory concentration (IC50) is 0.027 µM in test [1], greater than 50 µM in test [2], 0.15 µM in test [3] and 0.027 µM in test [4].
In the case of `CC(C)(c1ccc2sc(C(=O)Nc3cc(Cl)nc(Oc4ccc(F)c(Cl)c4)c3)cc2c1)S(C)(=O)=O` [Example 71, N-(2-chloro-6-(3-chloro-4-fluorophenoxy)pyridin-4-yl)-5-(2-(methylsulfonyl)propan-2-yl)benzo[b]thiophene-2-carboxamide], the IC50 in test [1] is 0.011 µM; in test [2], greater than 50 µM; in test [3], 0.02 µM; in test [4], 0.0056 µM.
`CC(C)(c1ccc2sc(C(=O)Nc3cc(Cl)nc(Oc4ccc(F)c(F)c4)c3)cc2c1)S(C)(=O)=O` [Example 79, N-(2-chloro-6-(3,4-difluorophenoxy)pyridin-4-yl)-5-(2-(methylsulfonyl)propan-2-yl)benzo[b]thiophene-2-carboxamide]: the IC50 in test [1] was 0.041 µM; in test [2], greater than 50 µM; in test [3] it was 0.043 µM; in test [4], 0.0074 µM.
With `Cc1csc(Oc2cc(NC(=O)c3cc4cc(C(C)(C)S(C)(=O)=O)ccc4s3)cc(Cl)n2)n1` [Example 119, N-(2-chloro-6-((4-methylthiazol-2-yl)oxy)pyridin-4-yl)-5-(2-(methylsulfonyl)propan-2-yl)benzo[b]thiophene-2-carboxamide], the IC50 was 2.8 µM in test [1], 12.8 µM in test [2], 7.8 µM in test [3] and greater than 0.1 µM in test [4].
For `CC(C)(c1ccc2sc(C(=O)Nc3cc(Cl)nc(Oc4ccc(OC(F)(F)F)cc4)c3)cc2c1)S(C)(=O)=O` [Example 84, N-(2-chloro-6-(4-(trifluoromethoxy)phenoxy)pyridin-4-yl)-5-(2-(methylsulfonyl)propan-2-yl)benzo[b]thiophene-2-carboxamide], the half-maximal inhibitory concentration (IC50) in test [1] is 0.0065 µM; in test [2] it was greater than 50 µM; in test [3], 0.02 µM; in test [4], 0.0026 µM.
The corresponding values for `CC(C)(c1ccc2sc(C(=O)Nc3cc(Cl)nc(Oc4ccc(Cl)c(Cl)c4)c3)cc2c1)S(C)(=O)=O` [Example 82, N-(2-chloro-6-(3,4-dichlorophenoxy)pyridin-4-yl)-5-(2-(methylsulfonyl)propan-2-yl)benzo[b]thiophene-2-carboxamide] are 0.0058 µM, greater than 50 µM, 0.035 µM and 0.0041 µM.
